Test results: US11634425B2, “Pharmaceutical compounds” (priority 2019, dated 2023)

System: RSV A2
Assay: RSV plaque reduction assay
Type: cell-based, respiratory syncytial virus (RSV)
Details: human respiratory syncytial virus, HepG2, Hep-G2 cells, mean of at least two experiments
Method in brief: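 RSV A2 at 100 PFU/well was premixed with eight compound dilutions and added to confluent Hep-G2 monolayers for 2 h at 37 °C. Cells were then kept 2 days under a DMEM/2% FBS/0.8% CMC overlay containing compound. Immunostained plaques were counted relative to virus controls, and EC50 came from 4-parameter fits, averaged over at least two experiments.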

SMILES	EC50
O=C(N[C@H]1N=C(c2ccccc2)c2ccccc2NC1=O)c1c(-c2ccccc2F)nn2cccnc12 [Example 2, 2-(2-Fluorophenyl)-N-[(3S)-2-oxo-5-phenyl-1,3-dihydro-1,4-benzodiazepin-3-yl]pyrazolo[1,5-a]pyrimidine-3-carboxamide]	39 nM
Cc1ccc(-c2nn3cccnc3c2C(=O)N[C@H]2N=C(c3ccccc3)c3cccc(F)c3NC2=O)cn1 [Example 50, N-[(3S)-9-fluoro-2-oxo-5-phenyl-1,3-dihydro-1,4-benzodiazepin-3-yl]-2-(6-methylpyridin-3-yl)pyrazolo[1,5-a]pyrimidine-3-carboxamide]	99 nM
CCc1ccc(-c2nn3cccnc3c2C(=O)N[C@H]2N=C(c3ccccc3)c3cccc(F)c3NC2=O)cn1 [Example 55]	45 nM
